Results on two molecules are retold here after patent US10899741B2, “3,4-bipyridyl pyrazole derivative, and preparation method therefor and medical application thereof” (Jiangsu Hengrui Medicine Co., Ltd., priority 2016, dated 2021).

The target of one data set is p38α kinase (Homo sapiens (Human), UniProt Q16539). Kind of data set: Inhibition of p38α kinase activity (ADP-Glo kit). In kind it is biochemical. The settings on record: ATP 50 μM, 27° C. 2.5 hours. The procedure:
The inhibition of p38α kinase activity in vitro was determined by the following method.
The inhibition effect of the compounds of the present invention on p38α kinase activity was determined by the following experimental method:
p38α kinase assay kit (V9591, Promega) was used to assay enzyme activity. 2 μl of enzyme solution (the final concentration of enzyme in the reaction system was 0.5 ng/μL) formulated with reaction buffer (40 mM Tris pH 7.5, 20 mM MgCl2, 0.1 mg/ml BSA), 1 μl of a 3-fold gradient dilution of the compounds dissolved in 5% DMSO, and 2 μl of a mixed solution of ATP and p38 substrate peptide (the final concentration of ATP was 50 μM, and the final concentration of substrate was 0.2 μg/μL) were added successively to a 384-well plate (4514, Corning). After reaction at 27° C. for 2.5 hours, 5 μl of ADP-Glo solution in the kit was added to each well, then the plate was placed at 27° C. for 40 minutes. 10 μl of kinase assay reagent was then added to each well, then the plate was placed at 27° C. for 30 minutes. The chemiluminescence signal values were measured with a Victor 3 (PerkinElmer) multi-function microplate reader. The IC50 values of the compounds on enzyme inhibition were calculated using Graphpad prism software based on each concentration of the compound and the corresponding signal value thereof.

The test system of another data set is NIH3T3 cell. Kind of data set: Inhibition of NIH3T3 cell proliferation (CellTiter-Glo). In kind it is cell-based. Particulars: NIH3T3, 72 hours, 0.5% FBS; for IC50: Mus musculus. The protocol: The inhibition effect of the compounds of the present invention on NIH3T3 cell proliferation was determined by the following in vitro test.
The inhibition effect of the compounds of the present invention on NIH3T3 cell proliferation was determined by the following experimental method:
On a 96-well white plate with transparent bottom (3903, Corning), 100 μL of NIH3T3 cell (GNM6, Cell Bank of Typical Culture Collection Committee of Chinese Academy of Sciences) was seeded in a DMEM medium containing 10% FBS (SH1-30243.01, GE) in each well. The seeding density is 2000 cells/well. The cells were incubated overnight at 37° C., in 5% CO2. After overnight incubation, each well was replaced with 90 μL of DMEM medium containing 0.5%0 FBS. 10 μl of a 3-fold gradient dilution of the compounds with DMEM medium containing 0.5% FBS was then added, and the plate was incubated for 72 hours in a cell incubator at 37° C., in 5% CO2. Finally, 50 μL of CellTiter-Glo (G7573, Promega) was added to each well. After incubation for 10 minutes at room temperature, the chemiluminescence signal values were measured with a Victor 3 microplate reader (PerkinElmer). The IC50 values of the compounds were calculated using Graphpad Prism software based on each concentration of the compound and the corresponding signal value thereof.

In data set [1] the test system is Smad signaling pathway of TGFβRI. Kind of data set: Inhibition of Smad signaling pathway of TGFβRI (3TP-lux luciferase reporter in HepG2 cells). The format is cell-based. Particulars: HepG2, 3TP-lux plasmid, 18 hours; for IC50: Homo sapiens. The protocol:
The inhibition effect of the compounds of the present invention on Smad signaling pathway of TGFβRI was determined by the following in vitro test.
The inhibition effect of the compounds of the present invention on Smad signaling pathway of TGFβRI was determined by the following experimental method:
On a 96-well plate, 100 μL of HepG2 cell (TCHu 72, Cell Bank of Typical Culture Collection Committee of Chinese Academy of Sciences) was seeded on an EMEM medium containing 10% FBS (42360-099, Gibco) in each well. The seeding density is 2.5×10^4 cells/well. The cells were incubated overnight at 37° C., in 5% CO2. Each well was replaced with fresh EMEM medium containing 10% FBS. 0.1 μg of 3TP-lux plasmid (11767, Biovector Science Lab, Inc.) was transfected in each well. The cells were further incubated for 24 hours at 37° C., in 5% CO2. Each well was replaced with 90 μL of EMEM medium containing 0.5% FBS, then the cells were starved for 6 hours. The compounds were formulated as a 20 mM stock solution, which was diluted in gradient to a 400× concentration with 100% DMSO, and further 40-fold diluted with EMEM containing 0.5% FBS. The cell culture plate was taken out, then 10 μl of diluted compound or control (0.25% DMSO) was added to each well respectively. The plate was shaken gently, then incubated for 18 hours in an incubator at 37° C., in 5% CO2. Finally, 100 μl of detection reagent ONE-Glo™ Luciferase Assay (E6110, Promega) was added to each well, and the plate was placed in dark at room temperature for 10 minutes. The chemiluminescence signal values were measured with a Victor 3.0 (PerkinElmer). The IC50 values of the compounds were calculated using Graphpad Prism software based on each concentration of the compound and the corresponding signal value thereof.

Data set [2] is described as follows: Pharmacokinetics assay in rats after intragastrical administration. The format is in vivo. The settings on record: both sexes, Sprague-Dawley, rat, plasma, po, SD rats; for Vd/F / AUC / CL/F / half-life / MRT: 2.0 mg/kg; for Vd/F: read-out: Apparent distribution volume Vz/F; for AUC: read-out: Area under curve AUC; for CL/F: read-out: Clearance CLz/F; for half-life: read-out: Half-life T1/2 (converted); for MRT: read-out: Residence time MRT. The procedure:
Rats were used as test animals. The drug concentration in plasma at different time points was determined by LC/MS/MS method after intragastrical administration of the compounds of Examples 1 and 2 to rats. The pharmacokinetic behavior of the compounds of the present invention was studied and evaluated in rats.
Eight healthy adult Sprague-Dawley (SD) rats (half male and half female) were purchased from SINO-BRITISH SIPPR/BK LAB. ANIMAL LTD., CO, with Certificate No.: SCXK (Shanghai) 2008-0016, and equally divided into 2 groups (4 rats per group).
A certain amount of the test drug was weighed, and added with 5% by volume of DMSO, 5% by volume of Tween 80, and 90% by volume of physiological saline to prepare a 0.2 mg/mL colorless, clear and transparent solution.
After an overnight fast, SD rats were administered intragastrically the test drugs at an administration dosage of 2.0 mg/kg and an administration volume of 10.0 mL/kg.
The rats were intragastrically administered the compounds of Examples 1 and 2. 0.2 mL of blood was taken from the orbital sinus before administration and at 0.5, 1.0, 2.0, 4.0, 6.0, 8.0, 11.0 and 24.0 hours after administration. The samples were stored in heparinized tubes, and centrifuged for 10 minutes at 4° C. at 3,500 rpm to separate the blood plasma. The plasma samples were stored at −20° C. The rats were fed 2 hours after administration.
The content of the test compounds in the plasma of rats after intragastrical administration of the test drugs at different concentrations was determined: 25 μL of rat plasma at each time after administration was taken, added with 30 μL (100 ng/mL) of the internal standard solution of camptothecin and 225 μL of acetonitrile, vortex-mixed for 5 minutes, and centrifuged for 10 minutes (3600 rpm). 5.0 μL of the supernatant was taken from the plasma samples for LC/MS/MS analysis.

p38α kinase, sequence (Q16539 whole entry): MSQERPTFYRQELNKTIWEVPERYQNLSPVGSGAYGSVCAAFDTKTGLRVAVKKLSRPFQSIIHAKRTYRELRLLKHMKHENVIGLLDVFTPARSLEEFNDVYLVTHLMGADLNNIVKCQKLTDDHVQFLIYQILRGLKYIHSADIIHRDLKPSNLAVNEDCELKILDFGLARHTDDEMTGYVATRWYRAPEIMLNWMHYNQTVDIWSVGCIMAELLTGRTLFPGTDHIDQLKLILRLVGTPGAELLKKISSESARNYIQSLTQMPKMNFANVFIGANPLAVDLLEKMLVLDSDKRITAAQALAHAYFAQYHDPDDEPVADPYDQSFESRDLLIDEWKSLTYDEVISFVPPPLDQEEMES

As for `Cc1cccc(-c2nn(C3CCC3)cc2-c2ccnc(-c3ccc(S(C)(=O)=O)cc3)c2)n1` [Example 1, 4-(1-Cyclobutyl-3-(6-methylpyridin-2-yl)-1H-pyrazol-4-yl)-2-(4-(methylsulfonyl)phenyl)pyridine], inhibition on p38α kinase was half-maximal at 2200 nM (IC50). Further, in the data set with NIH3T3 cell, the IC50 turned out to be 88 nM and the “Maximum inhibition rate (%)” value is recorded as 105%. Moreover, in data set [1], the “Maximum inhibition rate (%)” value was 101% and the midpoint of inhibition, the IC50, lay at 77 nM. Further, in data set [2] (2 mg/kg, heading: Plasma concentration Cmax), the Cmax worked out at 1830 ± 941 ng/mL. Besides, in data set [2], the Vd/F worked out at 1.2 ± 0.437 L/kg, the AUC worked out at 3270 ± 1470 ng·h/mL, the CL/F amounted to 11.9 ± 5.2 mL/min/kg and the half-life was 1.23 ± 0.33 h. Also, the MRT in data set [2] came to 1.72 ± 0.21 h.

For `Cc1cccc(-c2nn(C3CC3)cc2-c2ccnc(-c3ccc(S(C)(=O)=O)cc3)c2)n1` [Example 2, 4-(1-Cyclopropyl-3-(6-methylpyridin-2-yl)-1H-pyrazol-4-yl)-2-(4-(methylsulfonyl)phenyl)pyridine], half-maximal inhibition at p38α kinase (IC50) required 1000 nM. For the same molecule, in the data set with NIH3T3 cell, the IC50 came out at 194 nM and the “Maximum inhibition rate (%)” value is 107%. For the same molecule, in data set [1], the “Maximum inhibition rate (%)” value came out at 100% and the IC50 turned out to be 174 nM. Also, in data set [2], the Vd/F was found to be 0.872 ± 0.536 L/kg, the exposure (AUC) is 8060 ± 5290 ng·h/mL, the CL/F amounted to 5.33 ± 2.65 mL/min/kg and the half-life was 1.99 ± 0.95 h. The MRT in data set [2] was found to be 3.06 ± 0.87 h.
